Here are results for two molecules from ChEMBL document CHEMBL1221167, “Small-molecule inhibition of siderophore biosynthesis in Mycobacterium tuberculosis and Yersinia pestis” (Nat Chem Biol, 2005).

In test [1] the target is T1, AMP-binding enzyme family protein (Yersinia pestis) (UniProt Q56950).
T1 sequence (whole entry): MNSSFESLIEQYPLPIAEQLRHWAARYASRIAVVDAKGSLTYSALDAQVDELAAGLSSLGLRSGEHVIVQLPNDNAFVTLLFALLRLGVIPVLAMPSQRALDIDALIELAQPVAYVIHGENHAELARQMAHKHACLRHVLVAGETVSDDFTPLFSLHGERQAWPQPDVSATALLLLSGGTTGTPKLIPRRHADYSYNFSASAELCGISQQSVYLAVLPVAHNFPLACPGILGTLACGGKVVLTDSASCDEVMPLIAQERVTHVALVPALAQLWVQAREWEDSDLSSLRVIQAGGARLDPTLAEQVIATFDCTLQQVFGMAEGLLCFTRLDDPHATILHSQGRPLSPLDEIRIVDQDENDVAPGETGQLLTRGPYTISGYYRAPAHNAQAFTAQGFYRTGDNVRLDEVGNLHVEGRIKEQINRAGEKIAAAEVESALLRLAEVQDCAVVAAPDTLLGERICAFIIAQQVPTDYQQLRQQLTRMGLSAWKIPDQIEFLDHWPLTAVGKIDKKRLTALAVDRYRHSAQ
The test can be described thus: Inhibition of His6-tagged Yersinia pestis YbtE-mediated [3H]salicyl-ypArCP-H6 formation up to 400 uM after 1.5 hrs by microplate counting.

For a further test, the target named is T2, Pyochelin synthase PchD (Pseudomonas aeruginosa, UniProt Q9HWG3).
T2 sequence (Q9HWG3 whole entry): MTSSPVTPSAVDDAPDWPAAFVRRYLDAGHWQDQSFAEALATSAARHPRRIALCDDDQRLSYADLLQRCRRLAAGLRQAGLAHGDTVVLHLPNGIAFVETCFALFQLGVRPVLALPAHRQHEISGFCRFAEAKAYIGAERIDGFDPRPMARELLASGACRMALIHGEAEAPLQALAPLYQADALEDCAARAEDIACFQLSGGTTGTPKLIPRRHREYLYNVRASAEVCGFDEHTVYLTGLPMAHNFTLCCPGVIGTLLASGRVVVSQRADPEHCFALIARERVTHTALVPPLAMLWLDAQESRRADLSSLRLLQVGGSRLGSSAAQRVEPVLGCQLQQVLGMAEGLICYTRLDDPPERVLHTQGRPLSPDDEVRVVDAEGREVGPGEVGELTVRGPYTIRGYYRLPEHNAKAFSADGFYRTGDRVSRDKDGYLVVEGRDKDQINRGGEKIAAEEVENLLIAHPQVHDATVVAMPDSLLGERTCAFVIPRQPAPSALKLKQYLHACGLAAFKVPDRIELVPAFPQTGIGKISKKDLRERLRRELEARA
In words: Inhibition of adenylation activity of Pseudomonas aeruginosa PchD after 15 mins by ATP-[32P]pyrophosphate exchange assay.

For test [2], the system named is Mycobacterium tuberculosis. The test can be described thus: Inhibition of siderophore production in Mycobacterium tuberculosis H37Rv at 200 uM after 12 hrs by radiometric assay. The class given is functional, organism-based.
For test [3], the system named is Mycobacterium tuberculosis. The test can be described thus: Antimicrobial activity against Mycobacterium tuberculosis H37Rv assessed as inhibition of bacterial growth in iron-supplemented medium after 8 days. The class given is functional, organism-based. To be noted: 192 h.
The subject of test [4] is Yersinia pestis. The test can be described thus: Antimicrobial activity against Yersinia pestis assessed as inhibition of bacterial growth in iron-supplemented medium after 22 hrs. The class given is functional, organism-based.
Test [5] has as its system Mycobacterium tuberculosis. The test can be described thus: Antimicrobial activity against Mycobacterium tuberculosis H37Rv assessed as inhibition of bacterial growth in iron-deficient medium after 8 days. The class given is functional, organism-based. Particulars: 192 h.
Test [6] concerns Yersinia pestis. In words: Antimicrobial activity against Yersinia pestis assessed as inhibition of bacterial growth in iron-deficient medium after 22 hrs. The class given is functional, organism-based.

pIC50: −log10 of the molar value. Calls of active or inactive are those of the source. No cut-off for these calls is given here.

For the molecule `Nc1ncnc2c1ncn2[C@@H]1O[C@H](COS(N)(=O)=O)[C@@H](O)[C@H]1O`, in test [1], the inhibition entry was “inactive”.

For `Nc1ncnc2c1ncn2[C@@H]1O[C@H](COS(=O)(=O)NC(=O)c2ccccc2O)[C@@H](O)[C@H]1O`, the pIC50 (as a rule, −log10 of the IC50, conventionally taken in molar units) against Pyochelin synthase PchD was 7.90; in test [3], 4.40; in the test on Yersinia pestis [4] it was below 3.40; in test [5], 5.66; in the test on Yersinia pestis [6], 4.29. In addition, the inhibition result in test [2] was “Active”.
